# Calls of active or inactive are those of the source. The calls are words filed in the database; no cut-off is given here.
# Columns and labels:
# [1] = target: Casein kinase I isoform epsilon (Homo sapiens) (UniProt P49674); assay: Inhibition of human CK1epsilon at 1 uM using casein as substrate in presence of 33P-ATP by ProQinase assay
# [2] = target: MAP/microtubule affinity-regulating kinase 3 (Homo sapiens) (UniProt P27448); assay: (§1) Inhibition of recombinant human N-terminal His6-tagged MARK3 (2 to 729 residues) expressed in baculovirus infected Sf21 cells assessed as remaining activity at 1 uM using CHKtide as substrate incubated for 30 mins in presence of [gamma-33P]ATP by filter binding method relative to control
# [3] = target: Phosphatidylinositol 4,5-bisphosphate 3-kinase catalytic subunit gamma isoform (Homo sapiens, UniProt P48736); assay: Inhibition of recombinant human N-terminal His6-tagged PI3Kgamma (2 to 1102 residues) expressed in baculovirus expression system at 1 uM using diC8 PIP2 as substrate incubated for 75 mins by ADP-Glo assay
# [4] = target: Diacylglycerol kinase eta (Homo sapiens) (UniProt Q86XP1); assay: Inhibition of DGKeta (unknown origin) at 1 uM
# [5] = target: MAP/microtubule affinity-regulating kinase 4 (Homo sapiens) (UniProt Q96L34); assay: as §1, with “MARK4” for “MARK3”, “752” for “729”, “KKKVSRSGLYRSPSMPENLNRPR” for “CHKtide”
# [6] = target: G protein-coupled receptor kinase 6 (Homo sapiens) (UniProt P43250); assay: Inhibition of human GRK6 at 1 uM using casein as substrate in presence of 33P-ATP by ProQinase assay
# Sequence of G protein-coupled receptor kinase 6 (Homo sapiens) (P43250 whole entry, looked up, the tested form may be a part): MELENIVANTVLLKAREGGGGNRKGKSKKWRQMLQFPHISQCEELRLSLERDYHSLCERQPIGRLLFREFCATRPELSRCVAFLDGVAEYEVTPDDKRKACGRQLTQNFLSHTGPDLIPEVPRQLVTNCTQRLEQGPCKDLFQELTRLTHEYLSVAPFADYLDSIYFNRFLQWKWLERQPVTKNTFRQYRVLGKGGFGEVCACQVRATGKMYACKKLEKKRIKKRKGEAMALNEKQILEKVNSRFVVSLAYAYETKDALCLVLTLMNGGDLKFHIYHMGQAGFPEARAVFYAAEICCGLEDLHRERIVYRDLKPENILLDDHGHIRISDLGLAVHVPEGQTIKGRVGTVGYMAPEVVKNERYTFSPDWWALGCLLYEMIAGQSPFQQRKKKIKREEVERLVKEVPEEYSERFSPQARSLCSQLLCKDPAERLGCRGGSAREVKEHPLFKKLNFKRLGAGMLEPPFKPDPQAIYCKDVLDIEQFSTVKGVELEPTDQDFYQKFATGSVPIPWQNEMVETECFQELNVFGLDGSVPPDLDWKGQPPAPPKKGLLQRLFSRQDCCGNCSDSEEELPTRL
# [7] = target: Angiopoietin-1 receptor (Homo sapiens) (UniProt Q02763); assay: Inhibition of recombinant human N-terminal His6-tagged TIE2 (771 to 1124 residues) expressed in baculovirus infected Sf21 cells assessed as remaining activity at 1 uM using Poly(Glu,Tyr) as substrate incubated for 30 mins in presence of [gamma-33P]ATP by filter binding method relative to control
# Sequence of Angiopoietin-1 receptor (Homo sapiens) (Q02763 whole entry, the tested form may be a part): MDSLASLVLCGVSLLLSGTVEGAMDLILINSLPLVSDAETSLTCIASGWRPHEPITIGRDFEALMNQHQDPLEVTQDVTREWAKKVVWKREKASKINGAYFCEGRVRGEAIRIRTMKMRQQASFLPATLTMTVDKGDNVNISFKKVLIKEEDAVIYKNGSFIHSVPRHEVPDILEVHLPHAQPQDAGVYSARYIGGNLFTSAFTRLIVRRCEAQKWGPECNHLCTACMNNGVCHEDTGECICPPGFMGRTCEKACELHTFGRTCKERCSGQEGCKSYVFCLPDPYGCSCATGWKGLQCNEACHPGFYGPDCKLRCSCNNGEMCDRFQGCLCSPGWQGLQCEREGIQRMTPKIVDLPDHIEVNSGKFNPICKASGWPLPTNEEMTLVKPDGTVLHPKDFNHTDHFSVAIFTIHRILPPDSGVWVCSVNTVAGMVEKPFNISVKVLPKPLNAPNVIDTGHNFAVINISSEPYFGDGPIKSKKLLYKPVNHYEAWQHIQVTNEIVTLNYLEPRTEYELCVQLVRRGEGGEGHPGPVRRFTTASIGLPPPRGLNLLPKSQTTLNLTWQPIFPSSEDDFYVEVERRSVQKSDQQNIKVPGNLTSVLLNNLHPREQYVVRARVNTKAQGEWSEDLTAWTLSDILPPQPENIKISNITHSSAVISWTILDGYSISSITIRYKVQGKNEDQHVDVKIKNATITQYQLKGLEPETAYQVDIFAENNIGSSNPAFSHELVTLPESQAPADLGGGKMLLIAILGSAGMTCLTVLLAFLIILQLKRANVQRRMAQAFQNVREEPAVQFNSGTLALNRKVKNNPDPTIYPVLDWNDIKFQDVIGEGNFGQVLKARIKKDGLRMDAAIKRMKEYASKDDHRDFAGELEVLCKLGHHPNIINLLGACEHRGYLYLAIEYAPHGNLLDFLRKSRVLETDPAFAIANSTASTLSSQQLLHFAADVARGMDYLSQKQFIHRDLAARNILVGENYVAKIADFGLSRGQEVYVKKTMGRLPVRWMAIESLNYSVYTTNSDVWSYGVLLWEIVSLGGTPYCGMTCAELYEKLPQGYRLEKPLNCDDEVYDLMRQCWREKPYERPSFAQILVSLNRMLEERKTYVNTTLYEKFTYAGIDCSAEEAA
# [8] = target: Maternal embryonic leucine zipper kinase (Homo sapiens) (UniProt Q14680); assay: Inhibition of recombinant human N-terminal GST/C-terminal His6-tagged MELK (2 to 651 residues) expressed in Escherichia coli assessed as remaining activity at 1 uM using KKLNRTLSFAEPG as substrate incubated for 30 mins in presence of [gamma-33P]ATP by filter binding method relative to control
# Sequence of Maternal embryonic leucine zipper kinase (Homo sapiens) (Q14680 whole entry, looked up, the tested form may be a part): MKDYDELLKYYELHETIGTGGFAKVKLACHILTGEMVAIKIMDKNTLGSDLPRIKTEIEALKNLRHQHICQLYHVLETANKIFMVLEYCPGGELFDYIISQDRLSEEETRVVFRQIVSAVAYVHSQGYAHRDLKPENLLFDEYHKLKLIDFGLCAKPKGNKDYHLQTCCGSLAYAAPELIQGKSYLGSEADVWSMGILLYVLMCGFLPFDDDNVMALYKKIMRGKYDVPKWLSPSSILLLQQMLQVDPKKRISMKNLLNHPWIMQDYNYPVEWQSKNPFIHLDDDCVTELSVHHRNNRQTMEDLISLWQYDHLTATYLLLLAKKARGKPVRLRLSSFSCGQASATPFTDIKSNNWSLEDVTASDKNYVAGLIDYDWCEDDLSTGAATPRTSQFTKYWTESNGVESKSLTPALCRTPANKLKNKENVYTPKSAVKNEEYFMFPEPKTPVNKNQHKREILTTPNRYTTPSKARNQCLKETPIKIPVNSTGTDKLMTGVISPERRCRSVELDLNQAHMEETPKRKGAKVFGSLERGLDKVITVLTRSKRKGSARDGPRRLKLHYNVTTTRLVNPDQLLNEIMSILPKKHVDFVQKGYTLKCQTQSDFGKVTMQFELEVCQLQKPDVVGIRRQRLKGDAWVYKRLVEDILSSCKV
# [9] = target: Rho-associated protein kinase 2 (Homo sapiens) (UniProt O75116); assay: Inhibition of human ROCK2 at 1 uM using RB-S6P as substrate in presence of 33P-ATP by ProQinase assay
# [10] = target: CDK7/Cyclin H/MNAT1 (Homo sapiens) (UniProt P51946+P50613+P51948); assay: Inhibition of human CDK7/CyclinH/MAT1 at 1 uM using RBER-CHKtide as substrate in presence of 33P-ATP by ProQinase assay; type: protein-complex assay
# [11] = target: Mitogen-activated protein kinase kinase kinase 8 (Homo sapiens) (UniProt P41279); assay: Inhibition of human COT at 1 uM using RBER-CHKtide as substrate in presence of 33P-ATP by ProQinase assay
# Sequence of Mitogen-activated protein kinase kinase kinase 8 (Homo sapiens) (P41279 whole entry, the tested form may be a part): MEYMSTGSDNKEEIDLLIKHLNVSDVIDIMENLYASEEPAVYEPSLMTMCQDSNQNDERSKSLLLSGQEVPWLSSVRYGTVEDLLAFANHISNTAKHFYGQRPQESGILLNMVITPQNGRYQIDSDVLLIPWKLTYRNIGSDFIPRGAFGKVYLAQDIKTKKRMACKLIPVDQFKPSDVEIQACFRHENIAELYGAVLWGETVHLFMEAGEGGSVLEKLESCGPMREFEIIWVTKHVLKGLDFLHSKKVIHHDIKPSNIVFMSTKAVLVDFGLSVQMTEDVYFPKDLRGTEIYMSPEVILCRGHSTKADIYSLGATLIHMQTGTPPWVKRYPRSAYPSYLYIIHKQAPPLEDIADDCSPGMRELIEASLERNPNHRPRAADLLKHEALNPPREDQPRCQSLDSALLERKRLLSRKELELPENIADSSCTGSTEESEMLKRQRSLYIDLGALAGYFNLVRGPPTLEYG
# [12] = target: Serine/threonine-protein kinase PAK 5 (Homo sapiens) (UniProt Q9P286); assay: Inhibition of recombinant human N-terminal GST-tagged PAK5 (2 to 719 residues) expressed in Escherichia coli assessed as remaining activity at 1 uM using RRRLSFAEPG as substrate incubated for 30 mins in presence of [gamma-33P]ATP by filter binding method relative to control
# [13] = target: Tyrosine-protein kinase Lck (Homo sapiens) (UniProt P06239); assay: Inhibition of recombinant human N-terminal His6-tagged LCK (2 to 509 residues) expressed in baculovirus infected Sf21 cells assessed as remaining activity at 1 uM using KVEKIGEGTYGVVYK as substrate incubated for 30 mins in presence of [gamma-33P]ATP by filter binding method relative to control
# [14] = target: Tyrosine-protein kinase Lyn (Homo sapiens) (UniProt P07948); assay: Inhibition of human LYN at 1 uM using polyEY as substrate in presence of 33P-ATP by ProQinase assay
# Sequence of Tyrosine-protein kinase Lyn (Homo sapiens) (P07948 2-512 limits assumed): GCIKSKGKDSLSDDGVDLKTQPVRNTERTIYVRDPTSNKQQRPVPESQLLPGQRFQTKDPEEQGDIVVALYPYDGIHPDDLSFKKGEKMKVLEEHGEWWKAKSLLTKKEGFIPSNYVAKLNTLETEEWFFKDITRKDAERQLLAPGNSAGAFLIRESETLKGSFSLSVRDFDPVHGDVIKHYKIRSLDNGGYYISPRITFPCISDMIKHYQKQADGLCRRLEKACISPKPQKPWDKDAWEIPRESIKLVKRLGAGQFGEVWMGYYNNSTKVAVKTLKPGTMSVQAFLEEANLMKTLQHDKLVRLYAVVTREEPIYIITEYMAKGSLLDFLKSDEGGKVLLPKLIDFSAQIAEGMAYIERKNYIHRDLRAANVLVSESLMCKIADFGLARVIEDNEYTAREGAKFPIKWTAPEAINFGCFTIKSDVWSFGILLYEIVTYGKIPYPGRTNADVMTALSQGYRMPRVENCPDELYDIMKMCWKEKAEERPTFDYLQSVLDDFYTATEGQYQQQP
# [15] = target: Serine/threonine-protein kinase TAO3 (Homo sapiens) (UniProt Q9H2K8); assay: Inhibition of human TAOK3 at 1 uM using 3xChocktide-PKC as substrate in presence of 33P-ATP by ProQinase assay
# [16] = target: Testis-specific serine/threonine-protein kinase 2 (Homo sapiens) (UniProt Q96PF2); assay: Inhibition of human TSK2 at 1 uM using RBER-CHKtide as substrate in presence of 33P-ATP by ProQinase assay
# Sequence of Testis-specific serine/threonine-protein kinase 2 (Homo sapiens) (Q96PF2 whole entry): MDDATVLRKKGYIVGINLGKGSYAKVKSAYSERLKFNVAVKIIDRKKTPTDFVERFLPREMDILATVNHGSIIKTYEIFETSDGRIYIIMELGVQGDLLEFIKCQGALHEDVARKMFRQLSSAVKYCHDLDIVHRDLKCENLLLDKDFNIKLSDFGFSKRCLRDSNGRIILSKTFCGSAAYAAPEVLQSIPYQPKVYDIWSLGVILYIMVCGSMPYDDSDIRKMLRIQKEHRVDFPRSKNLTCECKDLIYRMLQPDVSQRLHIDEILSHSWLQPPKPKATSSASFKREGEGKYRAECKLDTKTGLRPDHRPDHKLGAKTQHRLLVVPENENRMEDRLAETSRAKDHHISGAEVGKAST
# [17] = target: CDK6/cyclin D1 (Homo sapiens) (UniProt P24385+Q00534); assay: Inhibition of human CDK6/CycD1 at 1 uM using RBER-CHKtide as substrate in presence of 33P-ATP by ProQinase assay; type: protein-complex assay
# [18] = target: Megakaryocyte-associated tyrosine-protein kinase (Homo sapiens) (UniProt P42679); assay: Inhibition of human MATK at 1 uM using polyEy as substrate in presence of 33P-ATP by ProQinase assay
# [19] = target: Phosphatidylinositol 4-phosphate 5-kinase type-1 alpha (Homo sapiens, UniProt Q99755); assay: Inhibition of human PIP5K1A using PI/PS as substrate by ADP-Glo assay
# Sequence of Phosphatidylinositol 4-phosphate 5-kinase type-1 alpha (Q99755 whole entry): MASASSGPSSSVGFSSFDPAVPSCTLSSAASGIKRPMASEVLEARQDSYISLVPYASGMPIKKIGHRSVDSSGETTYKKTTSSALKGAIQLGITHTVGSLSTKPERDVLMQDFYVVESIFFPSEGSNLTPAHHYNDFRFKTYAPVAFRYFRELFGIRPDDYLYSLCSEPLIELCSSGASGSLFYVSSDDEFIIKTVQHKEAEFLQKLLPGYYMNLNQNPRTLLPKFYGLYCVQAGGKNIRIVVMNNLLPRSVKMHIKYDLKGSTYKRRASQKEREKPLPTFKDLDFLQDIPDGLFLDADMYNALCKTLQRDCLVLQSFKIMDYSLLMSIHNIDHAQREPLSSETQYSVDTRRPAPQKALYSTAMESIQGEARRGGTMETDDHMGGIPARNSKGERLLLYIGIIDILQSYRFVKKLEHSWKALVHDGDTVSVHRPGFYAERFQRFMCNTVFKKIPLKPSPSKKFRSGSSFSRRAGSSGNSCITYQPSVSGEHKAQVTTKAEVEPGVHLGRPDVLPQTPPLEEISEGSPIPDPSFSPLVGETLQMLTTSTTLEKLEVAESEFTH
# [20] = target: Mitogen-activated protein kinase 1 (Homo sapiens) (UniProt P28482); assay: Inhibition of human ERK2 at 1 uM using RBER-CHKtide as substrate in presence of 33P-ATP by ProQinase assay
# Sequence of Mitogen-activated protein kinase 1 (Homo sapiens) (P28482 whole entry, the tested form may be a part): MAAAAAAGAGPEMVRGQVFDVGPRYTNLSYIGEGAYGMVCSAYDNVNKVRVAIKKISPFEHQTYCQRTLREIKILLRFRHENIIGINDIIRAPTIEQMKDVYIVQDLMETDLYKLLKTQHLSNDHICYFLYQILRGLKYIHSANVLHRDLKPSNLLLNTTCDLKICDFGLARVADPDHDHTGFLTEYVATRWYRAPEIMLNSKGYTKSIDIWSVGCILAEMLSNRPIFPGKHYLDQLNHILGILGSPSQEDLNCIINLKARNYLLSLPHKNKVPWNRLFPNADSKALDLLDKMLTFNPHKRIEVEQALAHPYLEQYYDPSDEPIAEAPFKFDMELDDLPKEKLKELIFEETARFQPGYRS
# [21] = target: Serine/threonine-protein kinase pim-3 (Homo sapiens) (UniProt Q86V86); assay: Inhibition of recombinant human N-terminal His6-tagged PIM3 (2 to 326 residues) expressed in baculovirus infected Sf21 cells assessed as remaining activity at 1 uM using RSRHSSYPAGT as substrate incubated for 30 mins in presence of [gamma-33P]ATP by filter binding method relative to control
# [22] = target: Protein kinase C alpha type (Homo sapiens) (UniProt P17252); assay: Inhibition of recombinant human N-terminal GST-tagged PKCA (2 to 351 residues) expressed in Escherichia coli assessed as remaining activity at 1 uM using kKemptide as substrate incubated for 30 mins in presence of [gamma-33P]ATP by filter binding method relative to control
# [23] = target: Inhibitor of nuclear factor kappa-B kinase subunit epsilon (Homo sapiens) (UniProt Q14164); assay: Inhibition of recombinant human N-terminal GST-tagged IKKepsilon (1 to 716 residues) expressed in baculovirus infected Sf21 cells assessed as remaining activity at 1 uM using MBP as substrate incubated for 30 mins in presence of [gamma-33P]ATP by filter binding method relative to control
# [24] = target: Serine/threonine-protein kinase pim-3 (Homo sapiens) (UniProt Q86V86); assay: Inhibition of human PIM3 at 1 uM using RBER-GSK3 as substrate in presence of 33P-ATP by ProQinase assay
# [25] = target: NUAK family SNF1-like kinase 1 (Homo sapiens) (UniProt O60285); assay: Inhibition of human ARK5 at 1 uM using RBER-CHKtide as substrate in presence of 33P-ATP by ProQinase assay
compound,measurement,setting,value
CC(C)(O)CNc1ncc(-c2ccnc(Nc3ccnc(Cl)c3)n2)c(CC2CC2)n1,inhibition,[1],inactive
same,Activity,[2],109%
same,inhibition,[3],inactive
same,inhibition,[4],inactive
same,Activity,[5],115%
same,inhibition,[6],inactive
same,Activity,[7],93%
same,Activity,[8],108%
same,inhibition,[9],inactive
same,inhibition,[10],inactive
same,inhibition,[11],inactive
same,Activity,[12],96%
same,Activity,[13],92%
same,inhibition,[14],inactive
same,inhibition,[15],inactive
same,inhibition,[16],inactive
same,inhibition,[17],inactive
same,inhibition,[18],inactive
same,IC50,[19],4.93 µM
same,inhibition,[20],inactive
same,Activity,[21],114%
same,Activity,[22],112%
same,Activity,[23],103%
same,inhibition,[24],inactive
same,inhibition,[25],inactive
